Laboratory results: publication doi:10.1101/2021.12.13.472350v1, “An amphipathic and cationic antimicrobial peptide kills colistin resistant Gram-negative pathogens in vivo” (bioRxiv, 2021)
Values after ≈ are worked out from the molar mass of the structure shown.

Tests used:
E. coli ATCC25922 = experiment: Live/Dead staining and phase contrast microscopy; assay type: cell-based; settings: 5xMIC, first 30 min of treatment, OD600 = 0.1
Protocol: Exponentially growing E. coli ATCC25922 were treated for 30 min with either colistin (5xMIC) or ChIP (5xMIC) at OD600 = 0.1. An untreated culture was used as a control. 20 ml of treated or untreated culture was concentrated by centrifugation at 5,000 × g for 10 minutes, washed and re-suspended in 10 ml 0.9% NaCl. All samples were incubated at room temperature for 1 hour, mixing every 15 minutes, before washing twice with 10 ml 0.9% NaCl. After washing, the samples were re-suspended in 5 ml 0.9% NaCl, except for ChIP treated samples that were suspended in 1 ml 0.9% NaCl. Sample staining was performed according to the manufacturers instruction (LIVE/DEAD(tm) BacLight(tm) Bacterial Viability Kit, for microscopy & quantitative assays), and incubated for 15 minutes in the dark. 5 μl of the bacterial suspension was placed on an agar pad and analyzed by fluorescence microscopy using an AxioImager Z1 microscope (Carl Zeiss MicroImaging, Inc), with a × 100 objective and a Hamamatsu ORCA-ER C4742-80-12AG camera.

[1] = test system: E. coli ML-35p inner membrane; experiment: Permeabilization assay (ONPG / β-galactosidase); assay type: cell-based; settings: ChIP 4, 12 and 20 µg/ml for 20, 40 or 60 minutes; chloramphenicol 200 µg/ml pretreated; level higher than toluene or colistin 2 µg/ml
Protocol: Exponentially growing cells of E. coli ML35 (LacI^- LacY^- LacZ^+) were treated with chloramphenicol (200 µg/ml) to stop protein synthesis. Chloramphenicol treated samples were incubated with ChIP (4, 12 and 20 µg/ml) and colistin (2 µg/ml) for 20, 40 or 60 minutes (12 samples total). 200 µL peptide treated cells were added to 1 ml Z-buffer (0.06M Na2HPO4, 0.04M NaH2PO4, 0.01M KCL, 0.001M MgSO4 and pH = 7) containing 1 mg/ml Ortho-Nitrophenyl-β-galactoside (ONPG). Samples were left at room temperature 15 minutes before stopping color development by addition of 0.5 ml Na2CO3 (1M). Toluene treated cells were included as a control for permeabilized cells. β-galactosidase activity was detected by OD420 measurements.

[2] = test system: Klebsiella pneumoniae ATCC 700603; settings: ATCC 700603, SHV-18, mucoid; MHB-II, 37°C, ~5×10^5 CFU/ml, triplicate
A. baumannii ATCC 19606 = experiment: In vivo sepsis/peritonitis mouse infection model; settings: NMRI mice infected IP, 10 mg/kg IP at 1 and 3 h
E. coli ATCC 25922 = experiment: MIC in the presence of 50% human serum; assay type: cell-based; settings: 50% heat inactivated human male AB serum and 50% MHB-II; crude measure of protein binding/interference; triplicate
Protocol: The minimum inhibitory concentration (MIC) was determined as previously described ([68]), with minor modifications. Briefly, exponentially growing cultures in MHB-II (37°C) were diluted to an OD600 = 0.002, approximately 1×10^6 colony forming units (CFU) per ml. 100 µl of bacterial suspension was added to polypropylene microtiter plates containing 100 µl of Colistin or ChIP dilutions. Giving a final bacterial inoculum of ∼ 5×10^5 CFU/ml. Colistin sulfate salt (Sigma-Aldrich) and ChIP (Genscript >95% purity) was dissolved in H2O. ChIP MIC in serum was determined in the presence of 50% (heat inactivated) human serum (Sigma) and 50% MHB-II. All experiments were performed in triplicate.

[3] = test system: Klebsiella pneumoniae ATCC 13883; settings: ATCC 13883, reference strain; MHB-II, 37°C, ~5×10^5 CFU/ml, triplicate
[4] = test system: Acinetobacter baumannii ATCC 19606; settings: ATCC 19606, reference strain; MHB-II, 37°C, ~5×10^5 CFU/ml, triplicate
HeLa cells = settings: ChIP concentrations of 40 µg/ml and above, 24 hours, DMEM without serum, Trypan Blue, triplicate
Protocol: HeLa cells were cultured in Dulbecco’s Modified Eagles Medium (DMEM) (Sigma) supplemented with 10% fetal calf serum (Sigma) and 2 mM glutamine at 37°C in a humid incubator with 5% CO2. Cell survival after 24 hours with various amounts of ChIP in DMEM without serum was determined by staining with Trypan Blue Stain (Gibco/Life Technologies). Experiments were performed in triplicate.

For `CC[C@@H](C)[C@@H](NC(=O)[C@@H](CCCCN)NC(=O)[C@@H](CCCCN)NC(=O)[C@@H](Cc1ccccc1)NC(=O)[C@@H](CC(C)C)NC(=O)[C@@H](CCCCN)NC(=O)[C@H](N)CCCCN)C(=O)N[C@H](CC(C)C)C(=O)N[C@H](CCCNC(=N)N)C(=O)N[C@H](Cc1ccc(O)cc1)C(=O)N[C@H](CC(C)C)C(N)=O` [ChIP], the “viability and lysis (SYTO9 / propidium iodide, phase contrast)” value (E. coli ATCC25922) was “loss of viability, but without lysis”, the “β-galactosidase activity (ONPG, OD420) of treated cells” value [1] was “increased in a dose dependent manner” and the MIC [2] was 8 µg/mL (≈ 5.52 µM). The “reduction of peritoneal bacterial titers relative to saline control” value (A. baumannii ATCC 19606; after 5 hours) was 3-4 log, the peritoneal bacterial titers (A. baumannii ATCC 19606; after 5 hours, saline control around 1×10^8 CFU/ml) was 1×10^3-1×10^4 CFU/ml and the bacterial blood titers (A. baumannii ATCC 19606; detection limit 50 CFU/ml) was “reduce CFU/ml to the detection limit”. For the same compound, the “MIC in MHB-II + Human serum (50:50) versus MHB-II” value (E. coli ATCC 25922) was “did not change the MIC”, the MIC [3] was 4 µg/mL (≈ 2.76 µM) and the MIC [4] was 8 µg/mL (≈ 5.52 µM). For the same compound, the HeLa cell survival (HeLa cells) was “greatly reduced survival”.
